From publication PMC3177832, “Structure-Based Development of Small Molecule PFKFB3 Inhibitors: A Framework for Potential Cancer Therapeutic Agents Targeting the Warburg Effect” (PLoS ONE, 2011)
Entries after “also recorded” stand apart in the source; their conditions may differ.

Key:
PFKFB4 = target: T1, PFKFB4 (Homo sapiens, UniProt Q16877); assay: 2-Kase assay, isoform selectivity; assay type: biochemical; conditions: N4A = 6 µM, YN1 = 1.3 µM
T1 construct: His6; made in house; host or cells: Escherichia coli C41(DE3)
Procedure: (§1) To determine steady-state initial reaction rates, the 2-Kase reactions were performed first and the Fru-2,6-BP produced was measured by a conventional enzyme-coupled kinetics assay as described previously, [36]. Initial rates of decrease in absorbance (Abs) at 340 nm were corrected with the rate of the control reaction in which no Fru-2,6-BP was present. Negative controls were carried out in the absence of enzyme and positive controls indicate the reaction in the presence of enzyme without inhibitor compounds. The percentage of Inhibitory activity was calculated according to the formula: % inhibition = 100×[1−(Absnegativecontrol−Abscompound)/(Absnegativecontrol−Abspositivecontrol)]. IC50 values were determined in quadruplicate. For the kinetic studies, concentrations of one of substrate and inhibitor were varied and decrease in absorbance at 340 nm was measured. The inhibition patterns were analyzed using the program written by Cleland, in which Ki is the dissociation constants for the inhibitor from enzyme-inhibitor complex. For Selectivity studies, the 2-Kase assays were performed first and the F-2,6-P2 produced was measured by an enzyme coupled kinetics assay as described above. The His6-tagged PFKFB isoforms, PFKFB1, PFKFB2, and PFKFB4 were expressed in Escherichia coli C41(DE3) and purified using Ni-NTA affinity columns.

PFKFB1 = target: T2, PFKFB1 (Homo sapiens, UniProt P16118); assay: 2-Kase assay, isoform selectivity; assay type: biochemical; conditions: N4A = 6 µM, YN1 = 1.3 µM
T2 construct: His6; made in house; host or cells: Escherichia coli C41(DE3)
Procedure: as §1

PFKFB2 = target: T3, PFKFB2 (Homo sapiens, UniProt O60825); assay: 2-Kase assay, isoform selectivity; assay type: biochemical; conditions: N4A = 6 µM, YN1 = 1.3 µM
T3 construct: His6; made in house; host or cells: Escherichia coli C41(DE3)
Procedure: as §1

HeLa cells [1] = assay: Flow cytometric analysis of cell death (Annexin V-FITC / PI); assay type: cell-based, human
Procedure: (§2) Cell growth inhibition was determined by an XTT-based in-vitro toxicology assay (Sigma-Aldrich) or trypan blue staining. Cells were plated at a density of 3.5×10^4 per well in a 24-well plate in DMEM containing 10% FCS. These cells were allowed to attach for 24 hours, and the media were replaced with fresh media containing either vehicle (dimethyl sulfoxide) or appropriate concentrations of test compounds. After 36 hours of incubation with either vehicle or compounds, cells were trypsinized and cell viability was determined by the trypan blue exclusion assay using a hemacytometer. For the XTT assay, cells were seeded into 96-well cell culture plates at a density of 0.6×10^4 per well. After the appropriate treatment described above, cells were incubated with 0.1 mg/ml of 2,3-bis(2-methoxy-4-nitro-5-sulfophenyl)-5-[(phenylamino)carbonyl]-2H-tetrazolium hydroxide (XTT) for 4 hours and then cell number was determined by the absorbance at 470 nm, which is proportional to the number of cells that remained attached to the plate. GI50s were calculated as the inhibitor concentration needed for 50% of vehicle-treated cell growth. The appearance of apoptotic or necrotic cells was determined by flow cytometric analysis of cells double stained with Annexin V-FITC and propidium iodide (PI). Apoptotic and necrotic cells were distinguished on the basis of double-labeling for Annexin V-FITC (Sigma-Aldrich) and PI, a membrane-impermeable DNA stain. Floating and freshly trypsinized cells were pooled, washed twice in binding buffer, and processed following manufacturer's instructions. The fluorescence of samples were analyzed by flow cytometry (FACSCalibur®, Becton Dickinson Immunocytometry, San Jose, CA) using the CellQuest (BD Bioscience, Immunocytometry Systems, San Jose, CA, USA) software.

HeLa cells [2] = assay: Soft agar colony formation; assay type: cell-based, human; conditions: 3 weeks; for Soft agar colony formation: HeLa cells, 25, 50 and 100 µM; for inhibition at 25 µM: Homo sapiens, 504 h, HeLa cells
Procedure: For HeLa cell colony formation was determined by soft agar assay. Cells ([…]) were mixed in DMEM medium containing 0.35% agarose and varying concentrations of N4A or YN1. Then the cell mixture was added on a layer of 0.6% concentration of bottom agar in 24 well plates and allowed to grow for three weeks at 37°Cunder 5% CO2. Fresh medium containing the inhibitors or vehicle (DMSO) was changed every four days. Colonies of 50 cells or more were counted after three weeks. The experiments were repeated at least five times.

HeLa cells [3] = assay: Lactate secretion (lactate oxidase-based assay kit); assay type: cell-based, human; conditions: 25 µM
Procedure: (§3) HeLa cells were plated at a density of 2.5×10^5 in a 6-well plate in DMEM containing 10% FCS. The media were replaced with fresh DMEM containing either vehicle (dimethyl sulfoxide) or 25 µM of inhibitor the following day. After 0, 4, 8, 12, 24, or 48 hours of incubation with each inhibitor, media samples were collected for measuring the lactate secretion levels using a lactate oxidase-based assay kit (Sigma-Aldrich) and the lactate concentration was normalized to the total cellular protein concentration. The Fru-2,6-BP level was determined with collected cells at times of 0, 4,8,12,24, or 48 hours after the treatment, using the method described previously.

HeLa and T47D cells = assay: Cell growth inhibition (XTT assay or trypan blue counting); assay type: cell-based, human; conditions: for Reduction in cell proliferation: 25 µM, human adenocarcinoma cells, compared to unexposed cells; for GI50: Homo sapiens, 36 hours incubation, inhibitor concentration for 50% of vehicle-treated cell growth
Procedure: as §2

human PFKFB3 = target: T4, human PFKFB3 (Homo sapiens, UniProt Q16875); assay: 2-Kase assay and kinetic analysis (enzyme-coupled); assay type: biochemical; conditions: for Inhibition (type): Lineweaver-Burk analysis; for IC50: PFKFB3 2-Kase activity; for Ki: steady state inhibition against Fru-6-P; for PFKFB3 inhibition at twice the IC50: twice the IC50 for PFKFB3 (N4A = 6 µM, YN1 = 1.3 µM)
T4 construct: The structure contains a total of 443 amino acid residues of the full-length protein of 520 residues; 6xHis; made in house; host or cells: Escherichia coli BL21(DE3) pLysS
Procedure: as §1, with “The percentage of Inhibitory activity was calculated according to the formula: % inhibition = 100×[1−(Absnegativecontrol−Abscompound)/(Absnegativecontrol−Abspositivecontrol)].” left out

HeLa cells [4] = assay: Cellular Fru-2,6-BP level determination; assay type: cell-based, human; conditions: 25 µM
Procedure: as §3

T4 sequence (Q16875 whole entry): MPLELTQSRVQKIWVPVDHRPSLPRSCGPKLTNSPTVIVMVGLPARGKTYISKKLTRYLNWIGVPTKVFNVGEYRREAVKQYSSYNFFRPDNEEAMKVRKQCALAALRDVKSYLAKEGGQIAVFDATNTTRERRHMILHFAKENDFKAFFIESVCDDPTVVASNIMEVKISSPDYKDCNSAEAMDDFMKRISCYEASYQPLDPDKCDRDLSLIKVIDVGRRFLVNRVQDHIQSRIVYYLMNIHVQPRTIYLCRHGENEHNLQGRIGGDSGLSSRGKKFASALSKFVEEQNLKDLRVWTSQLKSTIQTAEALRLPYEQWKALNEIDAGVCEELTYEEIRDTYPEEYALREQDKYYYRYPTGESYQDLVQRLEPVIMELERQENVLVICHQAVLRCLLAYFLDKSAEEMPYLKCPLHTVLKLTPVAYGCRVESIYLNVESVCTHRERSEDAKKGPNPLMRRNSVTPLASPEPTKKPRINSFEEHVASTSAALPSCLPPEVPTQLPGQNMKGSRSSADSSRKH
T1 sequence (Q16877 whole entry, canonical isoform): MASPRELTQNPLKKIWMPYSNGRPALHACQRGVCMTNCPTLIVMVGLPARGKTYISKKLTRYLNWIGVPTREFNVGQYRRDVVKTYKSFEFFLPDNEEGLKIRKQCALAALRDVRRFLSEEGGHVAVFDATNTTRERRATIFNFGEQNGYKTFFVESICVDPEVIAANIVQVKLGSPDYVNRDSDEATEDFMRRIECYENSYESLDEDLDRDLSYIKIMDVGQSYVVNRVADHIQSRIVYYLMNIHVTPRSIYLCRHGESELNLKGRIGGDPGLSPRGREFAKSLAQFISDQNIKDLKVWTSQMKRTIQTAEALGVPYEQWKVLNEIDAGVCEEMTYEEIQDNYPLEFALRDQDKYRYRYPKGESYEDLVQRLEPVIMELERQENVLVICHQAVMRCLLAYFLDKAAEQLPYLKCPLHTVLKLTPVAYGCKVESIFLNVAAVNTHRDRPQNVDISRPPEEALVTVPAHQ
T3 sequence (O60825 whole entry, canonical isoform): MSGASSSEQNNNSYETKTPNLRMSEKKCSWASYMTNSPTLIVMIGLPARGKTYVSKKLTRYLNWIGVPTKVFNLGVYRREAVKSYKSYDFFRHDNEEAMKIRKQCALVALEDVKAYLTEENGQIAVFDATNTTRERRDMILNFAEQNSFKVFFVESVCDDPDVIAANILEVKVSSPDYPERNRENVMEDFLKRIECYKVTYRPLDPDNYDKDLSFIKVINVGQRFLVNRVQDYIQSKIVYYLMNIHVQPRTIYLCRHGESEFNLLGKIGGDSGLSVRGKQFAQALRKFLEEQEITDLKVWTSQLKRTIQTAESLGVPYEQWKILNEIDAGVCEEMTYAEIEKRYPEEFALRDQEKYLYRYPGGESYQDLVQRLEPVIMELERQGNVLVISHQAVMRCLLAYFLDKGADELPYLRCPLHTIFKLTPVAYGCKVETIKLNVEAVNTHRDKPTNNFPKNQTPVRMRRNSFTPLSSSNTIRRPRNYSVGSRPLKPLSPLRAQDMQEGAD
T2 sequence (P16118 whole entry, canonical isoform): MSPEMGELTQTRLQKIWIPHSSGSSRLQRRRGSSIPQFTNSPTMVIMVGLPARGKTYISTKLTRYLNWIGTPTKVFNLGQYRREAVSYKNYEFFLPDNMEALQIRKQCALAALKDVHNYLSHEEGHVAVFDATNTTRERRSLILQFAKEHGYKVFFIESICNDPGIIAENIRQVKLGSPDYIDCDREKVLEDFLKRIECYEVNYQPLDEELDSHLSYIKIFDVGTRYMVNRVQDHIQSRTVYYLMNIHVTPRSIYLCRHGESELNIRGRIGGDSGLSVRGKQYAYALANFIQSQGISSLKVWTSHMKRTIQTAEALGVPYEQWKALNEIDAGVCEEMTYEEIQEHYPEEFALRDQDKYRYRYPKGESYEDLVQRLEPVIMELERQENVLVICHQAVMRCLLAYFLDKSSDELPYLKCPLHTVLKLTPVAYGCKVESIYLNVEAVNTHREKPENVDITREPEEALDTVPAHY

Structure (SMILES) | PFKFB4 inhibition at twice the IC50 for PFKFB3 (PFKFB4) | PFKFB1 inhibition at twice the IC50 for PFKFB3 (PFKFB1) | PFKFB2 inhibition at twice the IC50 for PFKFB3 (PFKFB2) | Type of cell death induced (HeLa cells [1]; 25 µM) | Type of cell death induced (HeLa cells [1]; 50 µM) | Type of cell death induced (HeLa cells [1]; Annexin V / PI) | Soft agar colony formation (HeLa cells [2]) | inhibition at 25 µM (HeLa cells [2]) [%] | Decrease in lactate secretions (HeLa cells [3]) | Reduction in cell proliferation (HeLa and T47D cells) | GI50 (HeLa and T47D cells) [nM] | Inhibition (type) (human PFKFB3) | IC50 (human PFKFB3) [nM] | Increase in PFKFB3 inhibition compared to N4A (human PFKFB3; relative to lead N4A) [fold] | Ki (human PFKFB3) [nM] | PFKFB3 inhibition at twice the IC50 (human PFKFB3) | Reduction of Fru-2,6-BP level (HeLa cells [4]; 48-hour exposure) | Reduction of Fru-2,6-BP level (HeLa cells [4]; 8 hour exposure) | Effect of Tween-20 on PFKFB3 inhibition (human PFKFB3; 10 µM compound, in the presence of 0.1% Tween-20) | inhibition at 10 µM (human PFKFB3; 10 µM compound, substrate-saturating conditions) [%]
O=c1c(-c2ccc(O)cc2)coc2c(O)c(O)ccc12 [YN1, 7,8-dihydroxy-3-(4-hydroxyphenyl) chromen-4-one] | less than 40% | less than 40% | less than 40% | prone to apoptosis | death by necrosis was significantly increased | induced both apoptotic and necrotic cell death | significantly inhibited colony formation | 79 | greater than 30% | over 90% | 8200 ± 800 | Competitive to Fru-6-P | 670 ± 80 | 5 | 240 ± 30 | over 80% | over 40% | approximately 20% |  | 
O=c1cc(-c2ccc(O)cc2)oc2c(O)c(O)c(O)c(O)c12 [N4A, 5,6,7,8-tetrahydroxy-2-(4-hydroxyphenyl) chromen-4-one] | less than 50% | less than 50% | less than 50% | prone to apoptosis | death by necrosis was significantly increased | induced both apoptotic and necrotic cell death | significantly inhibited colony formation | 64 | greater than 30% | 70% | 14200 ± 1500 | competitive inhibitor against Fru-6-P; also recorded: Competitive to Fru-6-P | 2970 ± 160 |  | 1290 ± 260 | over 80% | over 40% | approximately 20% | not affected | > 65
CCOC(=O)c1cc2ccc(O)cc2oc1=O [YZ9, ethyl 7-hydroxy-2-oxochromene-3-carboxylate] |  |  |  |  |  |  |  |  |  |  | 2700 ± 200 |  |  |  |  |  |  |  |  | 
